How the values were obtained:
[1] = Acute and repeat toxicity studies in rats; type: in vivo; conditions: intravenous
Protocol: Single dose and repeat-dose (28 daily injections) toxicology studies were carried out with one water-soluble form of this series (6ab) to assess the safety of intravenously administered drug in rats.

[2] = tested on: mantle cell lymphoma cell lines; conditions: Park et al Oncogene 2007; cited from earlier work
[3] = tested on: DLD1 (human colorectal tumor cell line); assay: Cytotoxicity assay (trypan blue exclusion, 96 h), DLD1; type: cell-based; conditions: DLD1, 96 h treatment; read-out: DLD1 IC50
[4] = tested on: H157 (human lung tumor cell line); assay: Cytotoxicity assay (trypan blue exclusion, 96 h), H157; type: cell-based; conditions: H157, 96 h treatment; read-out: H157 IC50
From the text: (§1) Tissue Culture and Reagents: Paclitaxel was purchased from Sigma. Cell lines were purchased from ATCC. Cell lines were routinely grown in DMEM or RPM1 (CellGro) supplemented with 10% fetal bovine serum (Atlas) and 1 unit/mL penicillin-streptomycin (Gibco).

[5] = tested on: BT20 (human breast tumor cell line); assay: Cytotoxicity assay (trypan blue exclusion, 96 h), BT20; type: cell-based; conditions: BT20, 96 h treatment
From the text: as §1

[6] = tested on: DU145; assay: Soft agar colony formation, DU145; type: cell-based, human; conditions: DU145, dose dependent
[7] = tested on: BT20 human breast carcinoma xenograft; assay: Nude mouse xenograft assay
Protocol: Female athymic (NCr-nu/nu) mice were injected subcutaneously with 0.5-1×10^7 ER-negative human breast tumor cells (BT-20) in 0.2 mL of PBS and the tumors allowed to grow to a size of 100-150 mm^3 in size in about 14 days. The mice were then paired such that the pairs harbored equal sized tumors, which were then used to test the therapeutic effects of 6s and 6ab. A Of the pairs, the animals were treated with either 50 mg/kg 6s following a Q4D schedule or 25 mg/kg using a Q2D schedule or vehicle (DMSO) control. The tumor size was then measured on alternate days in two dimensions and the volume determined using either of the following equations: 1: V=(L×(S^2))π/6); where L is the longer and S is the shorter of the two measurements. B. 6ab was dissolved in PBS and was administered intravenously (50 mg/kg) through the tail vein on every alternate day. Tumor measurements were done as in materials and methods.
Female athymic (NCR-nu/nu, Taconic) nude mice were injected with 0.5-1.0×10^7 BT20 cells subcutaneously in the hind leg using a 1 mL tuberculin syringe equipped with a 271/2 gauge needle. Approximately 14 days later, mice were paired (N=8) and injected with 6ab or Phosphate buffered saline as the vehicle control. The intravenous injections were performed in the mouse tail vein using a 1 mL tuberculin syringe equipped with a 30 gauge needle. The animals were injected following a Q2D×3 schedule. Tumor measurements (two dimensions) were done three times per week using traceable digital vernier calipers (Fisher).

[8] = Single dose and repeat-dose toxicology studies in mice; type: in vivo
[9] = tested on: BT20; assay: Soft agar colony formation, BT20; type: cell-based, human; conditions: BT20, dose dependent
[10] = tested on: DU145 (human prostate tumor cell line); assay: Cytotoxicity assay (trypan blue exclusion, 96 h), DU145; type: cell-based; conditions: DU145, 96 h treatment; read-out: DU145 IC50
From the text: as §1

[11] = tested on: MIA-PaCa-2 cells; assay: Soft agar colony formation, MIA-PaCa-2; type: cell-based, human; conditions: MIA-PaCa-2, dose dependent, three weeks
Protocol: FIG. 1 Anti-tumor effects of (E)-2,4,6-Trimethoxystyryl-3-Hydroxy-4-Methoxybenzyl Sulfone (6aa). A. 6aa inhibits the growth of parental (MES-SA) and Paclitaxel resistant (MES-SA/DX5) cell lines with equal efficiency. The parental uterine sarcoma cells and the MDR positive (MES-SA/DX5) cells were plated into 6 well dishes and treated with various concentrations of 6aa and Paclitaxel for 96 h. The number of viable cells from duplicate plates was determined by trypan blue exclusion. B. Soft Agar Assays. MIA-PaCa-2 cells (1.0×10^5) were plated in soft agar containing various concentrations of each compound in triplicates. After three weeks of growth, the plates were stained for 48 h using 0.05% nitroblue tetrazolium solution. Representative plates were photographed using an Olympus stereoscope mounted with a Sony digital camera system (DKC5000, Sony Inc).
The soft agar plates were prepared as described by Cosenza, et al (Cosenza, S. C. et al. In Cell Growth, Differentiation and Senescence, Studzinski, G. P., Ed.; Oxford University Press: 1999, 161-176.). Briefly, Noble bottom agar (0.8%) was plated onto 60 mm tissue culture plates. Exponentially growing MIA-PaCa-2 cells (1.0×10^5) were mixed with growth medium with various concentrations of each compound and mixed with Noble agar to a final concentration of 0.4%. Each concentration was plated in triplicate. The top agar was allowed to solidify and the plates were then incubated at 5% CO2 at 37° C. for 3 weeks. The plates were then stained with 0.05% nitroblue tetrazolium (NBT) solution and representative plates were photographed using an Olympus stereoscope mounted with a Sony digital camera system (DKC5000, Sony Inc).

[12] = Water solubility
[13] = tested on: BT20, DU145, H157 and DLD1 cell lines; assay: In vitro cytotoxicity, four human tumor cell lines (SAR discussion); type: cell-based; conditions: four human tumor cell lines
Protocol: A number of tumor cell lines were tested using a dose response end point assay system. The cells were grown in either DMEM or RPMI supplemented with 10% fetal bovine serum and 1 unit/mL Penicillin-Streptomycin solution. The tumor cells were plated into 6 well dishes at a cell density of 1.0×10^5 cells/mL/well and compounds were added 24 h later at various concentrations. Cell counts were determined from duplicate wells after 96 h of treatment. The total number of viable cells was determined by trypan blue exclusion.
Following the synthesis of this group of compounds, their in vitro cytotoxicity was assessed using four different human tumor cell lines derived from human breast (BT20), prostate (DU145), lung (H157) and colorectal (DLD1) cancers. […] In a majority of the compounds described here, a methoxy group was kept constant at the 4th position on the aromatic ring of the benzyl moiety.

[14] = single dose and repeat-dose (28 daily injections)

Substance: (E)-2,4,6-Trimethoxystyryl-3^1-O-phosphate disodium-4-methoxybenzyl Sulfone [6ab]
- drug levels in circulation [1]: High dose dependent drug levels were sustained in circulation
- hematotoxicity, liver damage, neurotoxicity [1, 14]: did not cause hematotoxicity (no myleosuppression), liver damage or any detectable neurotoxicity
- effect on mantle cell lymphoma cell lines [2]: altered the growth and cell cycle status
- IC50 [3]: 7 nM
- IC50 [4]: 7 nM
- IC50 [5]: 5 nM
- growth of tumor cells in soft agar [6]: complete inhibition of the growth of tumor cells
- tumor growth in xenograft model ([7]; 50 mg/kg IV tail vein, alternate days, 21 days): readily inhibited tumor growth
- tumor volume response of the majority of the mice ([7]; 8 mice per group): growth arrest or a gradual reduction in their tumor volume
- animal deaths ([7]; IV, Q2D×3 schedule): nor were there any animal deaths
- body weight loss ([7]; IV, Q2D×3 schedule): Body weight loss of more than 10% was not observed
- drug levels in circulation [8]: High, dose dependent, drug levels were sustained in circulation
- hematotoxicity, liver damage, neurotoxicity [8, 14]: did not cause hematotoxicity (no myleosuppression), liver damage or detectable neurotoxicity
- growth of tumor cells in soft agar [9]: complete inhibition of the growth of tumor cells
- IC50 [10]: 2.5 nM
- growth of tumor cells in soft agar [11]: complete inhibition of the growth of tumor cells
- water solubility [12]: highly water-soluble
- cytotoxic activity, SAR statement [13]: did not alter the potency

Source: patent publication US8735620B2, “Processes for preparing (E)-styrylbenzylsulfone compounds and uses thereof for treating proliferative disorders” (priority 2008, dated 2014)
